For one assay, the target named is T1, KRAS G12D/RAF1 (Homo sapiens, UniProt P01116, G12D).
T1 construct: His6-MBP (N, cleaved yes); made in house; host or cells: E. coli
Description: Protein-protein interaction (PPI) HTRF assay KRAS G12D/RAF1. The class given is binding. As to conditions: Table 4. Here is the method:
Biotinylated KRAS wt and KRAS G12DNV proteins were expressed and purified in conditions similar to those previously reported (Tran, et al., 2021) (Zhang, et al., 2020). Briefly, KRAS (1-169) proteins were expressed in E. coli at 18° C. with an upstream TEV cleavage site (ENLFYQS (SEQ ID NO: 6)) followed an Avi tag sequence ([…] (SEQ ID NO: 7)). KRAS expression constructs contained both a His6 (SEQ ID NO: 8) and maltose-binding protein (MBP) tags at the N-terminus for Ni-NTA column purification prior to overnight TEV cleavage and MBP column purification. The avi-tagged NRAS expression construct contained both a His6 tag (SEQ ID NO: 8) and SUMO cleavage sige at the N-terminus for Ni-NTA column purification followed by His-ULPi digestion overnight. All avi-tagged RAS proteins were dialyzed into buffer containing ATP, biotin, and BirA followed by purification over a second Ni-NTA column and then run over a size exclusion HiLoad™ 26/600 Superdex™ column in 20 mM HEPES, pH 7.5, 300 mM NaCl, 5 mM MgCl2, and 1 mM TCEP. Fractions containing the protein of interest were pooled, concentrated, and confirmed by intact mass spectrometry. To prepare ‘GTP’ loaded KRAS and NRAS, biotinylated KRAS or NRAS was nucleotide exchanged from GDP-bound protein to GppNHp-bound (Jena Biosciences, NU-401-50) protein in the presence of alkaline phosphatase and excess GppNHp as previously described and the resulting nucleotide content was confirmed by HPLC reverse phase analytical chromatography (Donohue, et al., 2019) (Tran, et al., 2021).
His-tagged RAF1 (52-131) was similarly expressed in E. coli at 18° C. overnight with an upstream TEV cleavage site. His-tagged RAF1 expression construct contained both a His6 (SEQ ID NO: 8) and MBP tags at the N-terminus for Ni-NTA column purification followed by MBP-tagged TEV digestion overnight. RAF1 protein samples were further purified over a MBP column followed by a Ni-NTA column and a second MBP column. The fractions containing the protein of interest were pooled, concentrated, and further purified over a HiLoad™ 16/600 Superdex™ 75 pg size exclusion column into 20 mM HEPES, pH8.0, 200 mM NaCl, 5 mM TCEP.
When RAS proteins are in the active GTP-bound conformation, they bind the effector protein RAF1 at the N-terminus Ras-binding domain (RBD, residues 52-131) (Tran, et al., 2021). Homogenous time resolved fluorescence (HTRF) was used to monitor the interaction between wt or mutant KRAS and RAF1 or wt NRAS and RAFT. Compounds were assayed in the presence of KRAS G12D/V and RAF1 versus wt KRAS to assess activity against mutant and w.t. KRAS. Similarly, compounds were then assayed in the presence of w.t. NRAS and RAF1 to assess RAS isoform selectivity. In all assay formats, His-tagged RAF1 protein was incubated with the HTRF donor, anti-6His (“6His” disclosed as SEQ ID NO: 8) Tb Cryptate gold (Cisbio 61DB10RDF), and biotinylated RAS proteins were incubated with the HTRF acceptor, streptavidin-d2 (CisBio 610SADLA). The intensity of the fluorescence signal emitted is proportional to binding between the two proteins. The donor solution was prepared by mixing 16 nM His-tagged RAF1 in protein dilution buffer with 1:100 anti-6His (“6His” disclosed as SEQ ID NO: 8) Tb cryptate in PPI-Terbium detection buffer. 16 nM biotinylated RAS protein was diluted into protein dilution buffer (50 mM Tris-HCl pH 7.5, 150 mM NaCl, 0.1 mM MgCl2, 1 mM TCEP, 0.005% Tween20) and mixed with 1:2000 Streptavidin-d2 diluted in PPI-Terbium detection buffer (CisBio 61DBTORDF). 50× compound in DMSO was mixed with 16 nM KRAS-acceptor solution and incubated for 30 minutes at room temperature. After compound pre-incubation with KRAS, the RAF1 donor solution was added to the KRAS-acceptor solution and incubated for 1 hour at room temperature. The fluorescence signal emitted was monitored at 665 nm and 615 nm using an Envision multimode plate reader. […]
(In general: TR-FRET usually uses a lanthanide donor and a delayed reading to cut background.)

In assay [1] the target is T2, GST-tagged KRAS-G12D (2-169) (Homo sapiens, UniProt P01116, G12D).
T2 construct: GST-tagged KRAS-G12D (2-169, Reaction Biology, MSC-11-539); purchased Reaction Biology MSC-11-539 (KRAS G12D); MSC-11-502 (SOS1cat)
T2 sequence (P01116 2-169 isoform P01116-2 G12D): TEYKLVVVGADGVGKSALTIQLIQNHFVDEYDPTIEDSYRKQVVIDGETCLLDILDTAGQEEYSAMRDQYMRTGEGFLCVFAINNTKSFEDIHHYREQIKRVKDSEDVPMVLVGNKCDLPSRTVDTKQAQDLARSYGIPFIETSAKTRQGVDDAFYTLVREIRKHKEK
Description: Nucleotide exchange assay (NEA), SOS-mediated, HTRF, KRAS G12D. Type of assay: biochemical. The settings on record: Table 4; IC50 extracted at 30 min. In a few lines:
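GST-KRAS-G12D (2-169, 5 nM final) with Tb-anti-GST donor was preincubated with compound 1 h at RT (pH 7.3 HEPES buffer, MgCl2, DTT), then SOScat (564-1049, 20 nM) and GTP-DY-647P1 (150 nM) were added. HTRF was read at RT; % inhibition vs DMSO/no-SOS blank, 4-parameter IC50 taken at 30 min.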

What is called IC50 is the concentration that inhibits the measured activity by half.

SMILES strings stand for the structures.

T1 sequence (P01116 with tags, fused parts or gaps isoform P01116-2 G12D): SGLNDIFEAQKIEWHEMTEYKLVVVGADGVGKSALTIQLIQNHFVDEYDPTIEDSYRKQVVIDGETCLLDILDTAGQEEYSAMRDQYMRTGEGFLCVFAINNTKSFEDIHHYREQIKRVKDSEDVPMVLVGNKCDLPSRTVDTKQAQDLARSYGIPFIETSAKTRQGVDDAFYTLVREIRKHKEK

On to `CO/N=C1/CCCN(c2nc(OC[C@@]34CCCN3C[C@H](F)C4)nc(N3CC4(CCc5sc(N)c(C#N)c54)C3)c2C#N)CC1` [Compound 59, 2-amino-1′-[5-cyano-2-[[(2R,8S)-2-fluoro-1,2,3,5,6,7-hexahydropyrrolizin-8-yl]methoxy]-6-[(4Z)-4-methoxyiminoazepan-1-yl]pyrimidin-4-yl]spiro[5,6-dihydrocyclopenta[b]thiophene-4,3′-azetidine]-3-carbonitrile], for which the figures for the half-maximal inhibitory concentration (IC50) (at KRAS G12D/RAF1; in assay [1]) were 10000 to 100000 nM and 100 to 1000 nM, respectively.

`Cc1nnc(-c2nn3c(c2Cl)CN(c2nc(OC[C@@]45CCCN4C[C@H](F)C5)nc(N4CC5(CCc6sc(N)c(C#N)c65)C4)c2C#N)CCC3)n1C` [Compound 60, 2-amino-1′-[6-[3-chloro-2-(4,5-dimethyl-1,2,4-triazol-3-yl)-4,6,7,8-tetrahydropyrazolo[1,5-a][1,4]diazepin-5-yl]-5-cyano-2-[[(2R,8S)-2-fluoro-1,2,3,5,6,7-hexahydropyrrolizin-8-yl]methoxy]pyrimidin-4-yl]spiro[5,6-dihydrocyclopenta[b]thiophene-4,3′-azetidine]-3-carbonitrile]: the IC50 on KRAS G12D/RAF1 is 1000 to 10000 nM; in assay [1], under 10 nM.

Turning to `N#Cc1c(N2C[C@H]3CC[C@@H](C2)[C@@H]3N)nc(OCC2(CN3CCOCC3)CC2)nc1N1CC2(CCc3sc(N)c(C#N)c32)C1` [Compound 61, 2-amino-1′-[6-[(1R,5S)-8-amino-3-azabicyclo[3.2.1]octan-3-yl]-5-cyano-2-[[1-(morpholinomethyl)cyclopropyl]methoxy]pyrimidin-4-yl]spiro[5,6-dihydrocyclopenta[b]thiophene-4,3′-azetidine]-3-carbonitrile], the half-inhibitory concentration (IC50) at KRAS G12D/RAF1 lay within 100 to 1000 nM; in assay [1], 10 to 100 nM.

Turning to `N#Cc1cnc(OCC2(CN3CCOCC3)CC2)nc1N1CC2(CCCc3sc(N)c(C#N)c32)C1` [Compound 63, 2-amino-1′-[5-cyano-2-[[1-(morpholinomethyl)cyclopropyl]methoxy]pyrimidin-4-yl]spiro[6,7-dihydro-5H-benzothiophene-4,3′-azetidine]-3-carbonitrile], the 50% inhibitory concentration (IC50) against KRAS G12D/RAF1 was in the range of 10000 to 100000 nM; in assay [1], 10 to 100 nM.

Consider `N#Cc1c(N2C[C@H]3CC[C@@H](C2)N3)nc(OCC2(CN3CCOCC3)COC2)nc1N1CC2(CCc3sc(N)c(C#N)c32)C1` [Compound 64, 2-amino-1′-[5-cyano-2-[[3-(morpholinomethyl)oxetan-3-yl]methoxy]-6-[(1R,5S)-3,8-diazabicyclo[3.2.1]octan-3-yl]pyrimidin-4-yl]spiro[5,6-dihydrocyclopenta[b]thiophene-4,3′-azetidine]-3-carbonitrile], for which the concentration for half-maximal inhibition (IC50) was 1000 to 10000 nM on KRAS G12D/RAF1 and under 10 nM in assay [1].

For the molecule `N#Cc1cnc(OC[C@@]23CCCN2C[C@H](F)C3)nc1N1CC2(CCc3sc(N)c(C#N)c32)C1` [Compound 65, 2-amino-1′-[5-cyano-2-[[(2R,8S)-2-fluoro-1,2,3,5,6,7-hexahydropyrrolizin-8-yl]methoxy]pyrimidin-4-yl]spiro[5,6-dihydrocyclopenta[b]thiophene-4,3′-azetidine]-3-carbonitrile], the 50% inhibitory concentration (IC50) fell in the range of 10000 to 100000 nM against KRAS G12D/RAF1 and 1000 to 20000 nM in assay [1].

Consider `N#Cc1cnc(OCC2(CN3CCOCC3)CC2)nc1N1CC2(CCc3sc(N)c(C#N)c32)C1` [Compound 66, 2-amino-1′-[5-cyano-2-[[1-(morpholinomethyl)cyclopropyl]methoxy]pyrimidin-4-yl]spiro[5,6-dihydrocyclopenta[b]thiophene-4,3′-azetidine]-3-carbonitrile], for which the results for the half-maximal inhibitory concentration (IC50) (against KRAS G12D/RAF1; in assay [1]) were 10000 to 100000 nM and 100 to 1000 nM, respectively.

With `CC1Cn2nncc2CN1c1nc(OC[C@@]23CCCN2C[C@H](F)C3)nc(N2CC3(CCc4sc(N)c(C#N)c43)C2)c1C#N` (stereo partly drawn) [Compound 67, 2-amino-1′-[5-cyano-6-(6-methyl-6,7-dihydro-4H-triazolo[1,5-a]pyrazin-5-yl)-2-[[(2R,8S)-2-fluoro-1,2,3,5,6,7-hexahydropyrrolizin-8-yl]methoxy]pyrimidin-4-yl]spiro[5,6-dihydrocyclopenta[b]thiophene-4,3′-azetidine]-3-carbonitrile], the IC50 against KRAS G12D/RAF1 was in the range of 10000 to 100000 nM; in assay [1], 100 to 1000 nM.

Take `N#Cc1c(N2C[C@H]3CC[C@@H](C2)N3)nc(OCC2(CN3CCOCC3)CC2(F)F)nc1N1CC2(CCc3sc(N)c(C#N)c32)C1` (stereo partly drawn) [Compound 68, 2-amino-1-[5-cyano-2-[[2,2-difluoro-1-(morpholinomethyl)cyclopropyl]methoxy]-6-[(1R,5S)-3,8-diazabicyclo[3.2.1]octan-3-yl]pyrimidin-4-yl]spiro[5,6-dihydrocyclopenta[b]thiophene-4,3′-azetidine]-3-carbonitrile]: the IC50 is 1000 to 10000 nM at KRAS G12D/RAF1 and under 10 nM in assay [1].

`N#Cc1c(N2C[C@H]3CC[C@@H](C2)N3)nc(OCC2(CN3CCSCC3)CC2)nc1N1CC2(CCc3sc(N)c(C#N)c32)C1` [Compound 72, 2-amino-1′-[5-cyano-6-[(1R,5S)-3,8-diazabicyclo[3.2.1]octan-3-yl]-2-[[1-(thiomorpholinomethyl)cyclopropyl]methoxy]pyrimidin-4-yl]spiro[5,6-dihydrocyclopenta[b]thiophene-4,3′-azetidine]-3-carbonitrile]: the IC50 was 100 to 1000 nM on KRAS G12D/RAF1 and under 10 nM in assay [1].

In the case of `C[C@H]1COCCN1CC1(COc2nc(N3C[C@H]4CC[C@@H](C3)N4)c(C#N)c(N3CC4(CCc5sc(N)c(C#N)c54)C3)n2)CC1` [Compound 77, 2-amino-1′-[5-cyano-6-[(1R,5S)-3,8-diazabicyclo[3.2.1]octan-3-yl]-2-[[1-[[(3S)-3-methylmorpholin-4-yl]methyl]cyclopropyl]methoxy]pyrimidin-4-yl]spiro[5,6-dihydrocyclopenta[b]thiophene-4,3′-azetidine]-3-carbonitrile], the values for the 50% inhibitory concentration (IC50) (on KRAS G12D/RAF1; in assay [1]) were 10000 to 100000 nM and under 10 nM, respectively.

With `N#Cc1c(N2C[C@H]3CC[C@@H](C2)N3)nc(OCC2(CN3C[C@@H](F)[C@@H](F)C3)CC2)nc1N1CC2(CCc3sc(N)c(C#N)c32)C1` [Compound 78, 2-amino-1′-[5-cyano-6-[(1R,5S)-3,8-diazabicyclo[3.2.1]octan-3-yl]-2-[[1-[[(3S,4R)-3,4-difluoropyrrolidin-1-yl]methyl]cyclopropyl]methoxy]pyrimidin-4-yl]spiro[5,6-dihydrocyclopenta[b]thiophene-4,3′-azetidine]-3-carbonitrile], the results for the half-inhibitory concentration (IC50) (against KRAS G12D/RAF1; in assay [1]) were over 100000 nM and 10 to 100 nM, respectively.

Values taken from patent US12145947B2, “Pyrimidine based modulators and uses thereof” (Quanta Therapeutics, Inc., priority 2022, dated 2024).
